From patent US12385900B2, “Method for evaluating cytotoxicity of gas” (DAIKIN INDUSTRIES, LTD., priority 2018, dated 2025)

Columns and labels:
[1] = test system: Human iPS cell-derived cardiomyocytes (iCell cardiomyocytes^2, CDI); test: Cytotoxicity evaluation test: number of beats of cardiomyocytes during gas flow onto the cell culture medium; format: cell-based
Method: Human iPS cell-derived cardiomyocytes (iCell cardiomyocytes^2, CDI) were seeded into a 96-well half-area plate at a density of 40,000 cells/well, followed by culture in an incubator for 7 to 10 days. Subsequently, a Ca indicator (EarlyTox Cardiotoxicity Kit, Molecular Devices) was added at 30 μL/well to the cardiomyocytes. Subsequently, chlorodifluoromethane (Example) or difluoromethane (Reference Example) was allowed to flow onto the surface of the cell culture medium in a closed vessel at a flow rate of 50 mL/min. During the flow, the cell culture medium was maintained at a pH of 7.4, a temperature of 37° C., and an air pressure in the incubator of 101.3 kPa. The number of beats of cardiomyocytes from the start of the flow to 10 minutes after the start of the flow was measured by a fluorescence measurement with a confocal quantitative image cytometer (CQ1, Yokogawa Electric Corporation).

heart = conditions: reported / known; cited from earlier work

Row | Compound | increase in the number of beats ([1]; 10 minutes after the start of the flow) [%] | Average number of beats (beats/30 sec) ([1]; exposure time 0 min (start of flow), gas flow 50 mL/min onto medium surface, pH 7.4, 37° C., 101.3 kPa) | Average number of beats (beats/30 sec) ([1]; exposure time 10 min, gas flow 50 mL/min onto medium surface, pH 7.4, 37° C., 101.3 kPa) | effects on the heart (heart) | change in the number of beats of cardiomyocytes [1] | Average number of beats (beats/30 sec) ([1]; human, 0 min, pH 7.4) | Average number of beats (beats/30 sec) ([1]; human, 10 min, pH 7.4)
1 | FC(F)Cl [chlorodifluoromethane] | 74 | 14.5 | 25.3 | has effects on the heart | – | – | –
2 | FCF [difluoromethane] | – | – | – | no significant effects on the heart | almost no change | 16.1 | 16.5
